Tests used:
plasma PTH = experiment: Micropore-facilitated transdermal delivery, plasma PTH in rats; details: CD hairless rats, derma roller microporation, 10% solution in reservoir, FIG. 11
plasma histamine [1] = details: rat
Description: For the in vivo evaluation of histamine release, compounds were dosed in isoflurane-anesthetized normal rats at 2 mg/kg by IV bolus (administered over less than one minute). Plasma histamine was measured 5 minutes after compound administration (Cayman histamine EIA #589651).

plasma histamine [2] = details: rat, in vivo

Question: `CC(=O)N[C@H](CS)C(=O)N[C@H](CCCNC(=N)N)C(=O)N[C@H](CCCNC(=N)N)C(=O)N[C@H](CCCNC(=N)N)C(=O)N[C@H](CCCNC(=N)N)C(=O)N[C@H](CCCNC(=N)N)C(=O)N[C@H](CCCNC(=N)N)C(N)=O` [SEQ ID NO: 6, Ac-crrrrrr-NH2] was tested. Which “duration of PTH reduction from baseline” value (plasma PTH) did it give?
Answer: ~4 h

Question: What about the “Histamine response in vivo Fold change from pre-dose levels 5′ post injection 2 mg/kg IV bolus” value (plasma histamine [1]) of the same molecule?
Answer: 2.7 fold

Question: And the “fold increase in histamine level relative to pre-dose” value (plasma histamine [2])?
Answer: 7 fold

Question: What about the “histamine response after IV bolus” value (plasma histamine [2]; iv) of the same molecule?
Answer: returned to baseline levels 15 minutes later

Question: `CC(=O)N[C@H](CS)C(=O)N[C@H](C)C(=O)N[C@H](CCCNC(=N)N)C(=O)N[C@H](CCCNC(=N)N)C(=O)N[C@H](CCCNC(=N)N)C(=O)N[C@H](C)C(=O)N[C@H](CCCNC(=N)N)C(N)=O` [SEQ ID NO: 26, Ac-carrrar-NH2] was tested. Which “Histamine response in vivo Fold change from pre-dose levels 5′ post injection 2 mg/kg IV bolus” value (plasma histamine [1]) did it give?
Answer: 1.0 fold
